Results as given in patent US7115642B2, “Substituted diphenyl isoxazoles, pyrazoles and oxadiazoles useful for treating HCV infection” (priority 2003, dated 2006).
Read-outs that look alike come from different tables or passages of the source.

Tests used:
[1] = system: HCV replicon (5-2 Luc replicon-comprising cells); experiment: HCV replicon assay (luciferase); format: cell-based, Hepatitis C virus; settings: 5-2 Luc replicon cells, luciferase readout, read-out: Replicon IC50
Summary of the method: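 Huh7-derived 5-2 Luc replicon cells seeded 24 h at 37 °C, then exposed to compound at various concentrations for another 24 h. Luciferase quantified by Bright-Glo luminescence; IC50 = concentration giving 50% reduction in luciferase activity; reported as +/− at a 10 μM cut-off.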

[2] = Cytotoxicity assay (Cell Titer Glo); format: cell-based; settings: human; 48 hr with compound, ATP-dependent Cell Titer Glo assay; read-out: IC50 in cytotoxicity assay (number of viable cells)
Method: Compounds 67, 167, 169, 13, 1, 145, 29, 119, 63, 31, 39, 103, 123, 121, 97, 129, 79, 111, 85, 89, 109, 127, 131, 95, 47, 57, 69, 165, 161, 163, 3, 137, 15, 141, 41, 53, 33, 113, 93, 105, 77, 91, 81, 83, 35, 27, 65, 7, 135, 51, 139, 51, 49, 143, 5, 149, 11, 37, 21, 45, 61, 75, 23, 125, 73, 43, 171 and 101 were tested in a cytotoxicity assay with liver cells including an HCV replicon (5-2 Luc cells, 9–13 cells or Huh-7 cells). In the assay, cells were seeded onto 96-well plates (approx. 7500 cells/well in a volume of 90 μl) and grown for 24 hr at 37° C. On day 2, various concentrations of test compound (in a volume of 10 μl) were added to the wells and the cells were grown for an additional 48 hr at 37° C. On day 4, an ATP-dependent R-Luciferase assay (Cell Titer Glo assay) was performed to determine the number of viable cells.

Structure (SMILES)	IC50 ([1]; Hepatitis C virus) [µM]	IC50 at 48 h [2] [µM]	IC50 [1] [µM]
O=C(Nc1cccc(-c2cc(-c3c(Cl)cccc3Cl)no2)c1)C(Br)Br [Compound 29, 2,2-Dibromo-N-[3-[3-(2,6-dichlorophenyl)-5-isoxazolyl]phenyl]Acetamide]	< 10	> 10	
Cc1cccc(Cl)c1-c1cc(-c2cccc(NC(=O)C(Cl)Cl)c2)on1 [Compound 31, 2,2-Dichloro-N-[3-[3-(2-chloro-6-methylphenyl)-5-isoxazolyl]phenyl]Acetamide]	< 10	> 10	
O=C(Nc1cccc(-c2cc(-c3ccccc3C(F)(F)F)no2)c1)C(Cl)Cl [Compound 33, 2,2-Dichloro-N-[3-[3-(2-trifluoromethylphenyl)-5-isoxazolyl]phenyl]Acetamide]	< 10	> 10	
O=C(Nc1cccc(-c2cc(-c3c(O)cccc3C(F)(F)F)no2)c1)C(Cl)Cl [Compound 35, 2,2-Dichloro-N-[3-[3-(2-hydroxy-6-trifluoromethylphenyl)-5-isoxazolyl]phenyl]Acetamide]	< 10	> 10	
CC(C)c1cccc(Cl)c1-c1cc(-c2cccc(NC(=O)C(Cl)Cl)c2)on1 [Compound 39, 2,2-Dichloro-N-[3-[3-(2-chloro-6-isopropylphenyl)-5-isoxazolyl]phenyl]Acetamide]	< 10	> 10	
O=C(Nc1cccc(-c2cc(-c3c(F)cccc3C(F)(F)F)no2)c1)C(Cl)Cl [Compound 41, 2,2-Dichloro-N-[3-[3-(2-fluoro-6-trifluoromethylphenyl)-5-isoxazolyl]phenyl]Acetamide]	< 10	> 10	
COc1cccc(F)c1-c1cc(-c2cccc(NC(=O)C(Cl)Cl)c2)on1 [Compound 43, 2,2-Dichloro-N-[3-[3-(2-fluoro-6-methoxyphenyl)-5-isoxazolyl]phenyl]Acetamide]	< 10	> 10	
O=C(Nc1cccc(-c2cc(-c3ccccc3OC(F)F)no2)c1)C(Cl)Cl [Compound 45, 2,2-Dichloro-N-[3-[3-(2-difluoromethoxyphenyl)-5-isoxazolyl]phenyl]Acetamide]	< 10	> 10	
Cc1cccc(C)c1-c1cc(-c2cccc(NC(=O)C(Cl)Cl)c2)on1 [Compound 47, 2,2-Dichloro-N-[3-[3-(2,6-dimethylphenyl)-5-isoxazolyl]phenyl]Acetamide]	< 10	> 5	
O=C(Nc1cccc(-c2cc(-c3c(F)cccc3I)no2)c1)C(Cl)Cl [Compound 49, 2,2-Dichloro-N-[3-[3-(2-fluoro-6-iodophenyl)-5-isoxazolyl]phenyl]Acetamide]	< 10	> 10	
Cc1ccc(Cl)c(-c2cc(-c3cccc(NC(=O)C(Cl)Cl)c3)on2)c1F [Compound 51, 2,2-Dichloro-N-[3-[3-(6-chloro-2-fluoro-3-methylphenyl)-5-isoxazolyl]phenyl]Acetamide]	< 10	> 10	
O=C(Nc1cccc(-c2cc(-c3c(F)ccc(F)c3Cl)no2)c1)C(Cl)Cl [Compound 53, 2,2-Dichloro-N-[3-[3-(2-chloro-3,6-difluorophenyl)-5-isoxazolyl]phenyl]Acetamide]	< 10	> 10	
CCOc1ccccc1-c1cc(-c2cccc(NC(=O)C(Cl)Cl)c2)on1 [Compound 61, 2,2-Dichloro-N-[3-[3-(2-ethoxyphenyl)-5-isoxazolyl]phenyl]Acetamide]	< 10	> 10	
CC(C)c1ccccc1-c1cc(-c2cccc(NC(=O)C(Cl)Cl)c2)on1 [Compound 63, 2,2-Dichloro-N-[3-[3-(2-isopropylphenyl)-5-isoxazolyl]phenyl]Acetamide]	< 10	> 10	
CN(C)c1cc(Cl)c(-c2cc(-c3cccc(NC(=O)C(Cl)Cl)c3)on2)c(Cl)c1 [Compound 65, 2,2-Dichloro-N-[3-[3-(2,6-dichloro-4-dimethylaminophenyl)-5-isoxazolyl]phenyl]Acetamide]	< 10	> 10	
O=C(Nc1cccc(-c2cc(-c3c(Cl)cccc3N3CCN(C(=O)C4CCCO4)CC3)no2)c1)C(Cl)Cl (stereo not shown) [Compound 643]			< 10
CC(C)C(=O)N1CCN(c2cccc(Cl)c2-c2cc(-c3cccc(NC(=O)C(Cl)Cl)c3)on2)CC1 [Compound 644]			< 10
CC(=O)N1CCC(CCOc2cccc(Cl)c2-c2cc(-c3cccc(NC(=O)C(Cl)Cl)c3)on2)CC1 [Compound 645]			< 10
O=C(Nc1cccc(-c2cc(-c3c(Cl)cccc3OCCC3CCN(C(=O)c4ccccn4)CC3)no2)c1)C(Cl)Cl [Compound 646]			< 10
O=C(Nc1cccc(-c2cc(-c3c(Cl)cccc3N3CCN(C(=O)CCc4ccccc4)CC3)no2)c1)C(Cl)Cl [Compound 647]			< 10
CCC(=O)N1CCN(c2cccc(Cl)c2-c2cc(-c3cccc(NC(=O)C(Cl)Cl)c3)on2)CC1 [Compound 648]			< 10
O=C(Nc1cccc(-c2cc(-c3c(Cl)cccc3N3CCN(Cc4ccncc4)CC3)no2)c1)C(Cl)Cl [Compound 650]			< 10
O=C(Nc1cccc(-c2cc(-c3c(Cl)cccc3N3CCN4CCCC4C3)no2)c1)C(Cl)Cl (stereo not shown) [Compound 651]			< 10
O=C(Nc1cccc(-c2cc(-c3c(Cl)cccc3N3CCN(CCN4CCCC4)CC3)no2)c1)C(Cl)Cl [Compound 652]			< 10
O=C(Nc1cccc(-c2cc(-c3c(Cl)cccc3N3CCN(CCc4ccccn4)CC3)no2)c1)C(Cl)Cl [Compound 653]			< 10

Structure (SMILES)	IC50 ([1]; Hepatitis C virus) [µM]	IC50 at 48 h [2] [µM]	IC50 [1] [µM]
O=C(Nc1cccc(-c2cc(-c3c(Cl)cccc3N3CCN(Cc4ccc(Cl)cc4)CC3)no2)c1)C(Cl)Cl [Compound 654]			< 10
CC(C)(C)OC(=O)N1CCCCC1C(=O)N1CCN(c2cccc(Cl)c2-c2cc(-c3cccc(NC(=O)C(Cl)Cl)c3)on2)CC1 (stereo not shown) [Compound 656]			< 10
O=C(Nc1cccc(-c2cc(-c3c(Cl)cccc3N3CCN(C(=O)c4cc(C(F)(F)F)cc(C(F)(F)F)c4)CC3)no2)c1)C(Cl)Cl [Compound 658]			< 10
COc1cccc(C(=O)N2CCN(c3cccc(Cl)c3-c3cc(-c4cccc(NC(=O)C(Cl)Cl)c4)on3)CC2)c1 [Compound 659]			< 10
O=C(Nc1cccc(-c2cc(-c3c(Cl)cccc3N3CCN(C(=O)c4cccc([N+](=O)[O-])c4)CC3)no2)c1)C(Cl)Cl [Compound 660]			< 10
O=C(Nc1cccc(-c2cc(-c3c(Cl)cccc3N3CCN(C(=O)c4ccc(C(F)(F)F)cc4)CC3)no2)c1)C(Cl)Cl [Compound 661]			< 10
O=C(Nc1cccc(-c2cc(-c3c(Cl)cccc3N3CCN(C(=O)c4ccc(F)cc4)CC3)no2)c1)C(Cl)Cl [Compound 662]			< 10
N#Cc1cccc(C(=O)N2CCN(c3cccc(Cl)c3-c3cc(-c4cccc(NC(=O)C(Cl)Cl)c4)on3)CC2)c1 [Compound 663]			< 10
COc1ccc(C(=O)N2CCN(c3cccc(Cl)c3-c3cc(-c4cccc(NC(=O)C(Cl)Cl)c4)on3)CC2)cc1 [Compound 664]			< 10
O=C(Nc1cccc(-c2cc(-c3c(Cl)cccc3N3CCN(C(=O)C4CCCCN4)CC3)no2)c1)C(Cl)Cl (stereo not shown) [Compound 666]			< 10
O=C(Nc1cccc(-c2cc(-c3c(Cl)cccc3N3CCN(CCN4CCCCC4)CC3)no2)c1)C(Cl)Cl [Compound 667]			< 10
O=C(Nc1cccc(-c2cc(-c3c(Cl)cccc3N3CCC(C(=O)N4CCOCC4)CC3)no2)c1)C(Cl)Cl [Compound 668]			> 10
CCCCNC(=O)Nc1cccc(Cl)c1-c1cc(-c2cccc(NC(=O)C(Cl)Cl)c2)on1 [Compound 669]			< 10
O=C(Nc1cccc(-c2cc(-c3c(Cl)cccc3OCc3ccccc3)no2)c1)C(Cl)Cl [Compound 670]			< 10
O=C(Nc1cccc(-c2cc(-c3c(Cl)cccc3I)no2)c1)C(Cl)Cl [Compound 677]			< 10
CC(C)(C)OC(=O)COc1cccc(Cl)c1-c1cc(-c2cccc(NC(=O)C(Cl)Cl)c2)on1 [Compound 678]			> 10
O=C(Nc1cccc(-c2cc(-c3c(Cl)cccc3NS(=O)(=O)c3ccc(Cl)cc3)no2)c1)C(Cl)Cl [Compound 679]			< 10
O=C(Nc1cccc(-c2cc(-c3c(Cl)cccc3N3CCC(NS(=O)(=O)c4ccccc4)C3)no2)c1)C(Cl)Cl (stereo not shown) [Compound 681]			< 10
O=C(Nc1cccc(-c2cc(-c3c(Cl)cccc3C(=O)N3CCOCC3)no2)c1)C(Cl)Cl [Compound 683]			< 10
O=C(Nc1cccc(-c2cc(-c3c(Cl)cccc3-c3cccnc3)no2)c1)C(Cl)Cl [Compound 685]			< 10
CC(C)(C)OC(=O)c1cccc(Cl)c1-c1cc(-c2cccc(NC(=O)C(Cl)Cl)c2)on1 [Compound 686]			< 10
O=C(O)c1cccc(Cl)c1-c1cc(-c2cccc(NC(=O)C(Cl)Cl)c2)on1 [Compound 687]			> 10
CNC(=O)c1cccc(Cl)c1-c1cc(-c2cccc(NC(=O)C(Cl)Cl)c2)on1 [Compound 691]			< 10
COC(=O)C(NC(=O)c1cccc(Cl)c1-c1cc(-c2cccc(NC(=O)C(Cl)Cl)c2)on1)c1ccccc1 (stereo not shown) [Compound 693]			> 10
